This is an account of results in patent US20250213555A1, “SUBSTITUTED TETRAHYDROFURAN ANALOGS AS MODULATORS OF SODIUM CHANNELS” (VERTEX PHARMACEUTICALS INCORPORATED, priority 2021, published 2025).

Structures are written as SMILES.

Sequence of human Nav 1.8 (Q9Y5Y9 126-399 limits assumed): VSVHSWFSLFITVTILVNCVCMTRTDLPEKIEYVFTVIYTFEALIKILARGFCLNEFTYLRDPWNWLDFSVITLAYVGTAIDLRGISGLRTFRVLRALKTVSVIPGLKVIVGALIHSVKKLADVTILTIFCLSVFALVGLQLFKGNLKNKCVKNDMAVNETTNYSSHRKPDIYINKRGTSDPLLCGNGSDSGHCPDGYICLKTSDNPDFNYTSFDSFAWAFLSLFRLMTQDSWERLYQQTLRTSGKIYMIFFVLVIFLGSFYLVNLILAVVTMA
Sequence of human Nav 1.8 (Q9Y5Y9 660-890 limits assumed): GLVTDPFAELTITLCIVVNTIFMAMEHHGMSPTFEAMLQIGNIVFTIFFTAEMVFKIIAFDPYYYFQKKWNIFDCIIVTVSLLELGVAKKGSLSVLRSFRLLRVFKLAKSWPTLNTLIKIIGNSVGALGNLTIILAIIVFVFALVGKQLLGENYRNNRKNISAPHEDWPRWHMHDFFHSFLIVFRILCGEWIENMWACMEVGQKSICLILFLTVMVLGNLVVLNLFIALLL
Sequence of human Nav 1.8 (Q9Y5Y9 1148-1722 limits assumed): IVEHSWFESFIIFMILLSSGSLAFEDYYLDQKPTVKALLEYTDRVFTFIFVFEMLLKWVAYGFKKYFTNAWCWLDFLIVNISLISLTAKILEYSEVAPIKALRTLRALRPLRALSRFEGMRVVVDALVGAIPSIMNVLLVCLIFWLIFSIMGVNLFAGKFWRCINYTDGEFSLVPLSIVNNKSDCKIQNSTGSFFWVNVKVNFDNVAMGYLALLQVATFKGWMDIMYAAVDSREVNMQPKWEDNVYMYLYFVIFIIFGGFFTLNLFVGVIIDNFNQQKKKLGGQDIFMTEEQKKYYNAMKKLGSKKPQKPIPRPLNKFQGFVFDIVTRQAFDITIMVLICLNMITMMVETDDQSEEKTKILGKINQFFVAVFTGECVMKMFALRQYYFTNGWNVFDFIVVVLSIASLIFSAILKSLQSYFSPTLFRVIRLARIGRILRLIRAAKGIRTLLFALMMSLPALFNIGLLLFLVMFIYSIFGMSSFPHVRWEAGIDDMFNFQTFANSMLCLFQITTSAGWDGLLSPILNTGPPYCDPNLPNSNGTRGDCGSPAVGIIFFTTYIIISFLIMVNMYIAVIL

The target in one experiment is human Nav 1.8 (Homo sapiens, UniProt Q9Y5Y9). The experiment is described as follows: E-VIPR assay detecting and measuring Nav inhibition properties. Particulars: HEK cells expressing a truncated form of human Nav 1.8; assay performed in the presence of human serum (compound numbers followed by "*"); read-out: measured IC50 value in the E-VIPR Assay. Format: cell-based. The method in brief:
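Nav inhibition was read by E-VIPR: cells were electrically stimulated while coumarin/oxonol FRET emissions were recorded. Cells were HEK expressing a truncated human Nav 1.8 and co-transduced with KIR2.1, and were assayed in 25% final human serum.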
In general, IC50 refers to the concentration that gives 50% inhibition. Consider `COCC[C@]1(C)C[C@@H](c2ccc(F)c(F)c2OC)[C@H](C(=O)Nc2ccnc(C(N)=O)c2)O1` (single isomer, unassigned) [Compound 30], for which the IC50 was no less than 1000 nM.

With `Cc1c(F)ccc([C@H]2C[C@@](C)(C(F)(F)F)O[C@@H]2C(=O)Nc2ccnc(C(N)=O)c2)c1OCCO` (single isomer, unassigned) [Compound 36], the half-maximal inhibitory concentration (IC50) was no less than 1000 nM.

Still in this experiment, the particulars now being: HEK cells expressing a truncated form of human Nav 1.8; compound numbers without "*" (not marked as run in the presence of human serum); read-out: measured IC50 value in the E-VIPR Assay.
As to `CO[C@H](CO)COc1c([C@H]2[C@H](C(=O)Nc3ccnc(C(N)=O)c3)O[C@@](C)(C(F)(F)F)[C@H]2C)ccc(F)c1F` (single isomer, unassigned) [Compound 161, rel-4-((2R*,3S*,4S*,5R*)-3-(3,4-difluoro-2-(3-hydroxy-2-methoxypropoxy)phenyl)-4,5-dimethyl-5-(trifluoromethyl)tetrahydrofuran-2-carboxamido)picolinamide], the IC50 was in the range of 10 to 100 nM.

As to `COC1CN(CCOc2c([C@H]3[C@H](C(=O)Nc4ccnc(C(N)=O)c4)O[C@@](C)(C(F)(F)F)[C@H]3C)ccc(F)c2F)C1` [Compound 52, 4-((2R,3S,4S,5R)-3-(3,4-difluoro-2-(2-(3-methoxyazetidin-1-yl)ethoxy)phenyl)-4,5-dimethyl-5-(trifluoromethyl)tetrahydrofuran-2-carboxamido)picolinamide], the half-inhibitory concentration (IC50) is less than 10 nM.

For the molecule `C[C@H]1[C@@H](c2ccc(F)c(F)c2OCC(CO)C(F)(F)F)[C@H](C(=O)Nc2ccnc(C(N)=O)c2)O[C@@]1(C)C(F)(F)F` (stereo partly drawn) [Compound 169, 4-((2R,3S,4S,5R)-3-(3,4-difluoro-2-(3,3,3-trifluoro-2-(hydroxymethyl)propoxy)phenyl)-4,5-dimethyl-5-(trifluoromethyl)tetrahydrofuran-2-carboxamido)picolinamide], the IC50 was less than 10 nM.

On to `COc1c([C@H]2[C@H](C(=O)Nc3ccnc(C(=O)N4C[C@@H](N(C)C)[C@@H](F)C4)c3)O[C@@](C)(C(F)(F)F)[C@H]2C)ccc(F)c1F` [Compound 300, (2R,3S,4S,5R)-3-(3,4-difluoro-2-methoxyphenyl)-N-(2-((3R,4S)-3-(dimethylamino)-4-fluoropyrrolidine-1-carbonyl)pyridin-4-yl)-4,5-dimethyl-5-(trifluoromethyl)tetrahydrofuran-2-carboxamide], for which the 50% inhibitory concentration (IC50) is 10 to 100 nM.

Turning to `C[C@H]1[C@@H](c2ccc(F)c(F)c2OC2CC(=NO)C2)[C@H](C(=O)Nc2ccnc(C(N)=O)c2)O[C@@]1(C)C(F)(F)F` (stereo partly drawn) [Compound 192, 4-((2R,3S,4S,5R)-3-(3,4-difluoro-2-(3-(hydroxyimino)cyclobutoxy)phenyl)-4,5-dimethyl-5-(trifluoromethyl)tetrahydrofuran-2-carboxamido)picolinamide], the IC50 was less than 10 nM.

`CCO[C@H]1CN(C)C[C@@H]1NC(=O)c1cc(NC(=O)[C@@H]2O[C@@](C)(C(F)(F)F)[C@@H](C)[C@H]2c2ccc(F)c(F)c2OC)ccn1` [Compound 291, 4-((2R,3S,4S,5R)-3-(3,4-difluoro-2-methoxyphenyl)-4,5-dimethyl-5-(trifluoromethyl)tetrahydrofuran-2-carboxamido)-N-((3S,4S)-4-ethoxy-1-methylpyrrolidin-3-yl)picolinamide]: the IC50 fell in the range of 100 to 1000 nM.

`C[C@H]1[C@@H](c2ccc(F)c(F)c2OC2CC3(CC(O)C3)C2)[C@H](C(=O)Nc2ccnc(C(N)=O)c2)O[C@@]1(C)C(F)(F)F` (stereo partly drawn) [Compound 204, 4-((2R,3S,4S,5R)-3-(3,4-difluoro-2-((6-hydroxyspiro[3.3]heptan-2-yl)oxy)phenyl)-4,5-dimethyl-5-(trifluoromethyl)tetrahydrofuran-2-carboxamido)picolinamide]: the IC50 lay within 100 to 1000 nM.

For `C[C@H]1[C@@H](c2ccc(F)c(F)c2OCc2cc[nH]n2)[C@H](C(=O)Nc2ccnc(C(N)=O)c2)O[C@@]1(C)C(F)(F)F` [Compound 83, 4-((2R,3S,4S,5R)-3-(2-((1H-pyrazol-3-yl)methoxy)-3,4-difluorophenyl)-4,5-dimethyl-5-(trifluoromethyl)tetrahydrofuran-2-carboxamido)picolinamide], the IC50 is less than 10 nM.

`C=C(COc1c([C@H]2[C@H](C(=O)Nc3ccnc(C(N)=O)c3)O[C@@](C)(C(F)(F)F)[C@H]2C)ccc(F)c1F)C(F)(F)F` [Compound 75, 4-((2R,3S,4S,5R)-3-(3,4-difluoro-2-((2-(trifluoromethyl)allyl)oxy)phenyl)-4,5-dimethyl-5-(trifluoromethyl)tetrahydrofuran-2-carboxamido)picolinamide]: the half-maximal inhibitory concentration (IC50) is less than 10 nM.

As for `COc1c([C@H]2[C@H](C(=O)Nc3cc(C(=O)N4CCNCC4)ncn3)O[C@@](C)(C(F)(F)F)[C@H]2C)ccc(F)c1F` [Compound 21, (2R,3S,4S,5R)-3-(3,4-difluoro-2-methoxyphenyl)-4,5-dimethyl-N-(6-(piperazine-1-carbonyl)pyrimidin-4-yl)-5-(trifluoromethyl)tetrahydrofuran-2-carboxamide], the half-maximal inhibitory concentration (IC50) lay in the range of 10 to 100 nM.

On to `COc1c([C@H]2[C@H](C(=O)Nc3ccnc(C(=O)N[C@H]4CCN(C)C4)c3)O[C@@](C)(C(F)(F)F)[C@H]2C)ccc(F)c1F` [Compound 277, 4-((2R,3S,4S,5R)-3-(3,4-difluoro-2-methoxyphenyl)-4,5-dimethyl-5-(trifluoromethyl)tetrahydrofuran-2-carboxamido)-N-((S)-1-methylpyrrolidin-3-yl)picolinamide], for which the IC50 was in the range of 10 to 100 nM.

As for `COCC1(C)CC(c2ccc(F)c(F)c2OC)C(C(=O)Nc2ccnc(C(N)=O)c2)O1` (single isomer, unassigned) [Compound 27], the IC50 is no less than 1000 nM.

Take `C[C@H]1[C@@H](c2ccc(F)c(F)c2OCCN2CC3(COC3)C2)[C@H](C(=O)Nc2ccnc(C(N)=O)c2)O[C@@]1(C)C(F)(F)F` [Compound 53, 4-((2R,3S,4S,5R)-3-(2-(2-(2-oxa-6-azaspiro[3.3]heptan-6-yl)ethoxy)-3,4-difluorophenyl)-4,5-dimethyl-5-(trifluoromethyl)tetrahydrofuran-2-carboxamido)picolinamide]: the IC50 is less than 10 nM.

`COc1c([C@H]2[C@H](C(=O)Nc3ccnc(C(=O)N4C[C@@H](F)[C@@H](N)C4)c3)O[C@@](C)(C(F)(F)F)[C@H]2C)ccc(F)c1F` [Compound 255, (2R,3S,4S,5R)-N-(2-((3S,4R)-3-amino-4-fluoropyrrolidine-1-carbonyl)pyridin-4-yl)-3-(3,4-difluoro-2-methoxyphenyl)-4,5-dimethyl-5-(trifluoromethyl)tetrahydrofuran-2-carboxamide]: the IC50 is less than 10 nM.

As for `C[C@H]1[C@@H](c2ccc(F)c(F)c2OCCC(C)(C)O)[C@H](C(=O)Nc2ccnc(C(N)=O)c2)O[C@@]1(C)C(F)(F)F` [Compound 100, 4-((2R,3S,4S,5R)-3-(3,4-difluoro-2-(3-hydroxy-3-methylbutoxy)phenyl)-4,5-dimethyl-5-(trifluoromethyl)tetrahydrofuran-2-carboxamido)picolinamide], the IC50 is 10 to 100 nM.

With `C[C@H]1[C@@H](c2ccc(F)c(F)c2OCCN=S(C)(C)=O)[C@H](C(=O)Nc2ccnc(C(N)=O)c2)O[C@@]1(C)C(F)(F)F` [Compound 130, 4-((2R,3S,4S,5R)-3-(2-(2-((dimethyl(oxo)-26-sulfaneylidene)amino)ethoxy)-3,4-difluorophenyl)-4,5-dimethyl-5-(trifluoromethyl)tetrahydrofuran-2-carboxamido)picolinamide], the 50% inhibitory concentration (IC50) was less than 10 nM.

For `COCc1c(F)ccc([C@H]2[C@H](C(=O)Nc3ccnc(C(N)=O)c3)O[C@@](C)(C(F)(F)F)[C@H]2C)c1OC` (single isomer, unassigned) [Compound 140], the half-maximal inhibitory concentration (IC50) was less than 10 nM.

As to `COc1c([C@H]2[C@H](C(=O)Nc3ccnc(C(=O)N[C@H]4CNC[C@@H]4OC)c3)O[C@@](C)(C(F)(F)F)[C@H]2C)ccc(F)c1F` [Compound 242, 4-((2R,3S,4S,5R)-3-(3,4-difluoro-2-methoxyphenyl)-4,5-dimethyl-5-(trifluoromethyl)tetrahydrofuran-2-carboxamido)-N-((3S,4S)-4-methoxypyrrolidin-3-yl)picolinamide], the IC50 was 10 to 100 nM.

As for `CC(C)NCCOc1c([C@H]2[C@H](C(=O)Nc3ccnc(C(N)=O)c3)O[C@@](C)(C(F)(F)F)[C@H]2C)ccc(F)c1F` [Compound 115, 4-((2R,3S,4S,5R)-3-(3,4-difluoro-2-(2-(isopropylamino)ethoxy)phenyl)-4,5-dimethyl-5-(trifluoromethyl)tetrahydrofuran-2-carboxamido)picolinamide], the half-maximal inhibitory concentration (IC50) was 100 to 1000 nM.

Consider `CC(C)C(COc1c([C@H]2[C@H](C(=O)Nc3ccnc(C(N)=O)c3)O[C@@](C)(C(F)(F)F)[C@H]2C)ccc(F)c1F)=NO` (single isomer, unassigned) [Compound 187, rel-4-((2R*,3S*,4S*,5R*)-3-(3,4-difluoro-2-(2-(hydroxyimino)-3-methylbutoxy)phenyl)-4,5-dimethyl-5-(trifluoromethyl)tetrahydrofuran-2-carboxamido)picolinamide], for which the IC50 is less than 10 nM.

On to `CNCCN(C)C(=O)c1cc(NC(=O)[C@@H]2O[C@@](C)(C(F)(F)F)[C@@H](C)[C@H]2c2ccc(F)c(F)c2OC)ccn1` [Compound 234, 4-((2R,3S,4S,5R)-3-(3,4-difluoro-2-methoxyphenyl)-4,5-dimethyl-5-(trifluoromethyl)tetrahydrofuran-2-carboxamido)-N-methyl-N-(2-(methylamino)ethyl)picolinamide], for which the half-maximal inhibitory concentration (IC50) is less than 10 nM.

Take `CN[C@H]1CN(C(=O)c2cc(NC(=O)[C@@H]3O[C@@](C)(C(F)(F)F)[C@@H](C)[C@H]3c3ccc(F)c(F)c3OC)ccn2)C[C@@H]1OC` [Compound 256, (2R,3S,4S,5R)-3-(3,4-difluoro-2-methoxyphenyl)-N-(2-((3S,4S)-3-methoxy-4-(methylamino)pyrrolidine-1-carbonyl)pyridin-4-yl)-4,5-dimethyl-5-(trifluoromethyl)tetrahydrofuran-2-carboxamide]: the 50% inhibitory concentration (IC50) was less than 10 nM.
